Results reported in PubChem BioAssay (NCI).
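Following 48 hours of exposure in 96-well plates, responses at five concentrations were used to interpolate endpoints linearly. The concentration for full growth arrest is given as TGI.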

Assays:
Assay in all cases: NCI tumour cell line growth inhibition, 48 h
786-0 renal = system: 786-0 renal
A498 renal = system: A498 renal
A549 NSCLC = system: A549 NSCLC
ACHN renal = system: ACHN renal
CAKI-1 renal = system: CAKI-1 renal
CCRF-CEM leukemia = system: CCRF-CEM leukemia
COLO 205 colon = system: COLO 205 colon
DLD-1 colon = system: DLD-1 colon
DMS 114 small cell lung = system: DMS 114 small cell lung
DMS 273 small cell lung = system: DMS 273 small cell lung
EKVX NSCLC = system: EKVX NSCLC
HCC-2998 colon = system: HCC-2998 colon
HCT-116 colon = system: HCT-116 colon
HOP-18 NSCLC = system: HOP-18 NSCLC
HOP-62 NSCLC = system: HOP-62 NSCLC
HOP-92 NSCLC = system: HOP-92 NSCLC
HT29 colon = system: HT29 colon
IGROV1 ovarian = system: IGROV1 ovarian
K-562 leukemia = system: K-562 leukemia
KM12 colon = system: KM12 colon
KM20L2 colon = system: KM20L2 colon
LOX IMVI melanoma = system: LOX IMVI melanoma
LXFL 529 NSCLC = system: LXFL 529 NSCLC
M14 melanoma = system: M14 melanoma
M19-MEL melanoma = system: M19-MEL melanoma
MALME-3M melanoma = system: MALME-3M melanoma
MOLT-4 leukemia = system: MOLT-4 leukemia
NCI-H226 lung = system: NCI-H226 lung
NCI-H23 lung = system: NCI-H23 lung
NCI-H460 lung = system: NCI-H460 lung
NCI-H522 lung = system: NCI-H522 lung
OVCAR-3 ovarian = system: OVCAR-3 ovarian
OVCAR-4 ovarian = system: OVCAR-4 ovarian
OVCAR-5 ovarian = system: OVCAR-5 ovarian
OVCAR-8 ovarian = system: OVCAR-8 ovarian
RPMI-8226 leukemia = system: RPMI-8226 leukemia
RXF-631 renal = system: RXF-631 renal
SF-268 CNS = system: SF-268 CNS
SF-295 CNS = system: SF-295 CNS
SF-539 CNS = system: SF-539 CNS
SK-MEL-2 melanoma = system: SK-MEL-2 melanoma
SK-MEL-28 melanoma = system: SK-MEL-28 melanoma
SK-MEL-5 melanoma = system: SK-MEL-5 melanoma
SK-OV-3 ovarian = system: SK-OV-3 ovarian
SN12C renal = system: SN12C renal
SNB-19 CNS = system: SNB-19 CNS
SNB-75 CNS = system: SNB-75 CNS
SNB-78 CNS = system: SNB-78 CNS
SR leukemia = system: SR leukemia
SW-620 colon = system: SW-620 colon
TK-10 renal = system: TK-10 renal
U251 CNS = system: U251 CNS
UACC-257 melanoma = system: UACC-257 melanoma
UACC-62 melanoma = system: UACC-62 melanoma
UO-31 renal = system: UO-31 renal
XF 498 CNS = system: XF 498 CNS
HCT-15 colon = system: HCT-15 colon
HL-60(TB) leukemia = system: HL-60(TB) leukemia
MCF7 breast = system: MCF7 breast
NCI/ADR-RES ovarian = system: NCI/ADR-RES ovarian
P388 leukemia = system: P388 leukemia
P388/ADR leukemia = system: P388/ADR leukemia
RXF 393 renal = system: RXF 393 renal
SN12K1 renal = system: SN12K1 renal

## Cc1cc(C)cc(Sc2c([N+](=O)[O-])ncn2C)c1
786-0 renal
  TGI: 76.8 µM
A498 renal
  TGI: 77.1 µM
A549 NSCLC
  TGI: > 100 µM
ACHN renal
  TGI: > 100 µM
CAKI-1 renal
  TGI: 89.2 µM
CCRF-CEM leukemia
  TGI: > 100 µM
COLO 205 colon
  TGI: 31.8 µM
DLD-1 colon
  TGI: 27.5 µM
DMS 114 small cell lung
  TGI: 34.4 µM
DMS 273 small cell lung
  TGI: 25.8 µM
EKVX NSCLC
  TGI: > 100 µM
HCC-2998 colon
  TGI: 92.7 µM
HCT-116 colon
  TGI: 32.4 µM
HOP-18 NSCLC
  TGI: 14.4 µM
HOP-62 NSCLC
  TGI: > 100 µM
HOP-92 NSCLC
  TGI: 41.7 µM
HT29 colon
  TGI: 38.7 µM
IGROV1 ovarian
  TGI: 55.1 µM
K-562 leukemia
  TGI: > 100 µM
KM12 colon
  TGI: 53.8 µM
KM20L2 colon
  TGI: > 100 µM
LOX IMVI melanoma
  TGI: 25.6 µM
LXFL 529 NSCLC
  TGI: 40.9 µM
M14 melanoma
  TGI: 27.6 µM
M19-MEL melanoma
  TGI: 84.1 µM
MALME-3M melanoma
  TGI: 25.3 µM
MOLT-4 leukemia
  TGI: 38.2 µM
NCI-H226 lung
  TGI: 22 µM
NCI-H23 lung
  TGI: 33.3 µM
NCI-H460 lung
  TGI: > 100 µM
NCI-H522 lung
  TGI: 20 µM
OVCAR-3 ovarian
  TGI: 34.3 µM
OVCAR-4 ovarian
  TGI: 44.1 µM
OVCAR-5 ovarian
  TGI: 53.5 µM
OVCAR-8 ovarian
  TGI: 29.7 µM
RPMI-8226 leukemia
  TGI: > 100 µM
RXF-631 renal
  TGI: 51.3 µM
SF-268 CNS
  TGI: 33.9 µM
SF-295 CNS
  TGI: 70.8 µM
SF-539 CNS
  TGI: 20.9 µM
SK-MEL-2 melanoma
  TGI: 25.8 µM
SK-MEL-28 melanoma
  TGI: 30 µM
SK-MEL-5 melanoma
  TGI: 26.7 µM
SK-OV-3 ovarian
  TGI: 75.5 µM
SN12C renal
  TGI: 31.8 µM
SNB-19 CNS
  TGI: > 100 µM
SNB-75 CNS
  TGI: 62.5 µM
SNB-78 CNS
  TGI: 58.9 µM
SR leukemia
  TGI: 41 µM
SW-620 colon
  TGI: 41.4 µM
TK-10 renal
  TGI: 72.4 µM
U251 CNS
  TGI: 36.7 µM
UACC-257 melanoma
  TGI: 27.7 µM
UACC-62 melanoma
  TGI: 29.8 µM
UO-31 renal
  TGI: 85.9 µM
XF 498 CNS
  TGI: 59.5 µM

## Nc1ncnc2c1ncn2C1CCC(CO)O1 (stereo not drawn)
A498 renal
  TGI: > 100 µM
A549 NSCLC
  TGI: > 100 µM
CAKI-1 renal
  TGI: > 100 µM
CCRF-CEM leukemia
  TGI: > 100 µM
COLO 205 colon
  TGI: > 100 µM
DLD-1 colon
  TGI: > 100 µM
DMS 114 small cell lung
  TGI: > 74.1 µM
DMS 273 small cell lung
  TGI: > 100 µM
EKVX NSCLC
  TGI: 100 µM
HCC-2998 colon
  TGI: > 77.4 µM
HCT-116 colon
  TGI: > 100 µM
HCT-15 colon
  TGI: > 100 µM
HL-60(TB) leukemia
  TGI: > 100 µM
HOP-18 NSCLC
  TGI: > 100 µM
HOP-62 NSCLC
  TGI: > 100 µM
HOP-92 NSCLC
  TGI: > 86.4 µM
HT29 colon
  TGI: > 67.2 µM
IGROV1 ovarian
  TGI: > 100 µM
K-562 leukemia
  TGI: > 100 µM
KM12 colon
  TGI: > 100 µM
KM20L2 colon
  TGI: > 100 µM
LOX IMVI melanoma
  TGI: > 100 µM
M19-MEL melanoma
  TGI: > 100 µM
MALME-3M melanoma
  TGI: > 100 µM
MCF7 breast
  TGI: > 100 µM
MOLT-4 leukemia
  TGI: > 100 µM
NCI-H226 lung
  TGI: > 74.7 µM
NCI-H23 lung
  TGI: > 71.5 µM
NCI-H460 lung
  TGI: > 100 µM
NCI-H522 lung
  TGI: > 100 µM
NCI/ADR-RES ovarian
  TGI: > 77.4 µM
OVCAR-3 ovarian
  TGI: > 100 µM
OVCAR-4 ovarian
  TGI: > 89.1 µM
OVCAR-5 ovarian
  TGI: > 100 µM
OVCAR-8 ovarian
  TGI: > 79.4 µM
P388 leukemia
  TGI: > 100 µM
P388/ADR leukemia
  TGI: > 77.4 µM
RPMI-8226 leukemia
  TGI: > 100 µM
RXF 393 renal
  TGI: > 100 µM
SF-268 CNS
  TGI: > 87.7 µM
SF-295 CNS
  TGI: > 79.4 µM
SF-539 CNS
  TGI: > 100 µM
SK-MEL-2 melanoma
  TGI: > 100 µM
SK-MEL-28 melanoma
  TGI: > 68.2 µM
SK-MEL-5 melanoma
  TGI: > 100 µM
SK-OV-3 ovarian
  TGI: > 100 µM
SN12C renal
  TGI: > 100 µM
SN12K1 renal
  TGI: > 69.5 µM
SNB-19 CNS
  TGI: > 100 µM
SNB-75 CNS
  TGI: > 100 µM
SNB-78 CNS
  TGI: > 100 µM
SW-620 colon
  TGI: > 100 µM
U251 CNS
  TGI: > 100 µM
UACC-257 melanoma
  TGI: > 100 µM
UACC-62 melanoma
  TGI: > 100 µM
UO-31 renal
  TGI: > 100 µM
XF 498 CNS
  TGI: > 100 µM
